# Where a name gives a salt, the structure may show the parent alone.
# Legend:
# [1] = system: ddY male mice; assay: Forced swimming method in mice (animal model of depression); assay type: in vivo; settings: for Duration of immobility (sec) Mean value ± Standard error: last 4 min of 6 min test, Not Significant (Dunnett test); for Rate of change of duration of immobility to solvent control group (%): solvent control = 100%
# Method: The test was carried out with reference to the method of Porsolt et al., [Arch. Int. Pharmacodyn. Ther., 229, 327-336 (1977)], which is an animal model of depression.
# Experiment was conducted using 10 ddY male mice (weighing 20 to 35 g, Nihon SLC Co., Ltd) per one group.
# An acrylic transparent cylinder having a diameter of 10 cm and a height of 25 cm was filled with water having a temperature of about 24° C. Height from the bottom of the cylinder to the surface of the water was adjusted to be about 9 cm.
# The mice were forced to swim individually for a period of 6 minutes, the total duration of immobility during the last 4 minutes of 6 minutes test was measured (significance test: Dunnett test).
# The antidepressant drug and Compound (I) were suspended in distilled water for injection (manufactured by Otsuka Pharmaceutical Co., Ltd.) containing 0.5% MC (methyl cellulose), respectively, for use in the test. Time point of administration of the antidepressant drug was predetermined such that the peak of onset of activity by the antidepressant drug overlaps with the peak of onset of activity by Compound (I). According to the predetermined time, the suspension containing the antidepressant drug was orally administered to a group administered the antidepressant drug alone or a group administered the antidepressant drug and Compound (I) in combination (0.1 mL per 10 g of the mouse body weight). Further, the suspension containing Compound (I) was orally administered to the group administered the antidepressant drug and Compound (I) in combination, 1 hour before the test (0.1 mL per 10 g of the mouse body weight). A solution without containing a test compound [distilled water for injection (manufactured by Otsuka Pharmaceutical Co., Ltd.) containing 0.5% MC] and the suspension containing Compound (I) were orally administered to a solvent control group and to a group administered Compound (I) alone, 1 hour before the test, respectively (0.1 mL per 10 g of the mouse body weight).
# (§1) Effect obtained by combining Compound (I) and the antidepressant drug was evaluated according to the following index.
# (§2) The duration of Immobility in the solvent control group was assumed to be 100%, and each rate of change (%) of the duration of, immobility in the above administration group to the duration of immobility in the solvent control group was calculated, and was compared. The duration of immobility in each administration group, and the rate of change (%) of the duration of immobility are shown in Table 1.
# [2] = system: ICR male mice; assay: Mouse tail suspension method (animal model of depression); assay type: in vivo; settings: for Duration of immobility (sec) Mean value ± Standard error: last 4 min of 6 min test, Not Significant (Student's t test); for Rate of change of duration of immobility to solvent control group (%): solvent control = 100%
# Method: The test was carried out with reference to the method of Steru et al., [Psychopharmacol., 85, 367-370 (1985)], which is an animal model of depression.
# Experiment was conducted using 10 ICR male mice (weighing 20 to 35 g, Nihon SLC Co., Ltd) per one group.
# An acrylic or metallic bat was fixed horizontally such that height of about 60 cm from the floor face is provided.
# The mouse was suspended at a site of about 2 cm from the tip of the tail, from the bar for a period of 6 minutes. Duration of immobility during the last 4 minutes of 6 minutes test was measured (significance test: Student's t test). For fixing the mouse, an adhesive tape was used.
# The antidepressant drug and Compound (I) were suspended in distilled water for injection (manufactured by Otsuka Pharmaceutical Co., Ltd.) containing 0.5% MC (methyl cellulose), respectively, for use in the test. Time point of administration of the antidepressant drug was predetermined such that the peak of onset of activity by the antidepressant drug overlaps with the peak of onset of activity by Compound (I). According to the predetermined time, the suspension containing the antidepressant drug was orally administered to a group administered the antidepressant drug alone or a group administered the antidepressant drug and Compound (I) in combination (0.1 mL per 10 g of the mouse body weight). Further, the suspension containing Compound (I) was orally administered to the group administered the antidepressant drug and Compound (I) in combination, 1 hour before the test (0.1 mL per […] of the mouse body weight). A solution without containing a test compound [distilled water for injection (manufactured by Otsuka Pharmaceutical Co., Ltd.) containing 0.5% MC] and the suspension containing Compound (I) were orally administered to a solvent control group and to a group administered Compound (I) alone, 1 hour before the test, respectively (0.1 mL per 10 g of the mouse body weight).
# as §1
# as §2, with “of” for “of,”, “2 and Table 3.” for “1.”
# [3] = Venlafaxine hydrochloride 5.00 mg/kg orally
# [4] = Table 3, fluoxetine hydrochloride 10.00 mg/kg orally
# [5] = Table 2, paroxetine hydrochloride hydrate 2.50 mg/kg orally
# [6] = Table 2, Compound (I) 0.04 mg/kg orally 1 hour before test
# [7] = Table 3, Compound (I) 0.04 mg/kg orally 1 hour before test
# [8] = Compound (I) 0.08 mg/kg orally 1 hour before test
smiles,measurement,setting,value
COc1ccc(C(CN(C)C)C2(O)CCCCC2)cc1 (stereo not drawn) [Venlafaxine hydrochloride],Duration of immobility (sec) Mean value ± Standard error,[1]; [3],173.1 ± 20.7 s
same,Rate of change of duration of immobility to solvent control group (%),[1]; [3],−12%
CNCCC(Oc1ccc(C(F)(F)F)cc1)c1ccccc1 (stereo not drawn) [Fluoxetine hydrochloride],Duration of immobility (sec) Mean value ± Standard error,[2]; [4],85.7 ± 18.9 s
same,Rate of change of duration of immobility to solvent control group (%),[2]; [4],−16%
Fc1ccc([C@@H]2CCNC[C@H]2COc2ccc3c(c2)OCO3)cc1 [Paroxetine hydrochloride hydrate],Duration of immobility (sec) Mean value ± Standard error,[2]; [5],79.6 ± 16.6 s
same,Rate of change of duration of immobility to solvent control group (%),[2]; [5],−2%
"CCn1c(=O)c2c(nc(/C=C/c3ccc(OC)c(OC)c3)n2C)n(CC)c1=O [Compound (I), (E)-8-(3,4-dimethoxystyryl)-1,3-diethyl-7-methyl-3,7-dihydro-1H-purine-2,6-dione]",Duration of immobility (sec) Mean value ± Standard error,[2]; [6],70.1 ± 19.1 s
same,Rate of change of duration of immobility to solvent control group (%),[2]; [6],−14%
same,Duration of immobility (sec) Mean value ± Standard error,[2]; [7],87.9 ± 14.9 s
same,Rate of change of duration of immobility to solvent control group (%),[2]; [7],−26%
same,Duration of immobility (sec) Mean value ± Standard error,[1]; [8],155.6 ± 13.3 s
same,Rate of change of duration of immobility to solvent control group (%),[1]; [8],−21%

# From patent US9238033B2, “Pharmaceutical composition containing KW-6002 and fluoxetine or paroxentine” (Kyowa Hakko Kirin Co., Ltd., priority 2003, dated 2016)
